Test results as given in patent publication US12162858B2, “Quinoline derivatives as inhibitors of AXL/MER RTK and CSF1R” (QURIENT CO., LTD., priority 2018, dated 2024).

What was measured:
CSF1R = CSF1R (Homo sapiens, UniProt P07333); test: Cellular CSF1R inhibition ELISA (p-CSF1R, M-CSF-induced) using THP-1 cells; assay type: cell-based; parameters: THP-1 cells act as a model for human monocytes; endogenous in cells; host or cells: THP-1
Excerpt: The normal proto-oncogene c-fms encodes the macrophage growth factor (M-CSF, also known as CSF1) receptor involved in growth, survival, and differentiation along the monocyte-macrophage lineage. THP-1 cells act as a model for human monocytes. It confirms that an increased phosphorylation of CSF1R (p-CSF1R) can be observed, when induced by CSF1R ligand, CSF1.
The THP-1 cells should be maintained from 5×10^5 to 1×10^6 cells/ml in the cell culture flask. After centrifugation, the supernatant is aspirated. The cell pellet is re-suspended with pre-warmed growth medium (RPMI1640, 10% FBS, 0.05 mM 2-Mercaptoethanol) and cells are separated by pipetting 6 times up and down with a 10 ml serological pipette. The cell suspension has to be diluted to a final concentration of 2×10^5 cells per 80 μl with pre-warmed growth medium. 80 μl of cell suspension is added to all wells of plates. Cell-plates are incubated at 37° C./5% CO2. Dissolve compound in 100% DMSO to make 10 mM stock solutions (Aliquots stored in the Nitrogen Cabinet). Dilute 10 mM compounds solutions for 2-fold in 100% DMSO to get 5 mM solutions (10 μl+10 μl DMSO), and then make a 3-fold serial dilution (10 μl+20 μl DMSO) for 10 doses. For reference compounds: Dilute 10 mM compounds solutions for 20-fold in 100% DMSO to get 0.5 mM solutions (2 μl+38 μl DMSO), and then make a 3-fold serial dilution (10 μl+20 μl DMSO) for 10 doses. Transfer 2 μl diluted compounds to 198 μl medium to get solution of 50 μM concentration at top point for compounds and 5 μM for reference compounds. Then transfer 20 μl cpd solution into assay plate (Duplicate wells). The plate is incubated at 37° C./5% CO2 for 24 h. The final concentration of DMSO in all wells is […]. Reconstitute human M-CSF at 50 μg/ml in sterile water. (Aliquots stored in −80° C.). 1:1000 dilute human M-CSF by fresh medium to 50 ng/ml. After 24 h compounds treatment, transfer 25 μl diluted human M-CSF (50 ng/ml) to cell plate according to the plate map. The final concentration of human M-CSF in all wells is 10 ng/ml.
The plates is incubated at 37° C./5% CO2 for 5 min. In the beginning the appropriate amount of lysis buffer complete (100 μL/well) is prepared and stored on ice. After 5 min human M-CSF stimulation, wash plates once with 300 μL ice cold PBS. Then 100 μl lysis buffer is added to each well. The plate is shacked for 40 min at 4° C. Plates can now be stored at −20° C. After equilibrate the micro-well strips at room temperature, break off the required number of micro-wells. Place the micro-wells in the strip holder. Unused micro-wells must be resealed and stored at 4° C. immediately. Add 90 μl of cell lysate to the appropriate well. Seal with tape and press firmly onto top of micro-wells. Incubate the plate for 2 h at 37° C. Gently remove the tape and wash wells 4 times with 1× Wash Buffer, 200 μl each time for each well. Add 100 μl of reconstituted Detection Antibody (green color) to each well. Seal with tape and incubate the plate at 37° C. for 1 h. Repeat wash procedure. Add 100 μl of reconstituted HRP-Linked secondary antibody to each well. Seal with tape and incubate the plate for 30 min at 37° C. Repeat wash procedure. Add 100 μl of TMB Substrate to each well. Seal with tape and incubate the plate for 10 min at 37° C. or 30 min at 25° C. Calculations and Formulas: The following calculations and formulas are used for data analysis using XL Fit software: The curve fitting was made using the Sigmoidal Dose-Response Model (Fit model, 205).

CSF1R (M-NFS-60 cells) = test: Cell Titer-Glo viability assay using M-NFS-60 cells; assay type: cell-based; details: Mus musculus, read-out: Cellular CSF1R activity by M-NFS-60 viability assay (IC50 activity range)
Outline: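 M-NFS-60 cells grown with 62 ng/ml recombinant human M-CSF, seeded at 2×10^5 cells/well and incubated at 37 °C/5% CO2. Compounds given as 3-fold serial dilutions (10 doses); viability read by CellTiter-Glo luminescence, sigmoidal dose-response fit.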

CSF1R, sequence (P07333 20-972): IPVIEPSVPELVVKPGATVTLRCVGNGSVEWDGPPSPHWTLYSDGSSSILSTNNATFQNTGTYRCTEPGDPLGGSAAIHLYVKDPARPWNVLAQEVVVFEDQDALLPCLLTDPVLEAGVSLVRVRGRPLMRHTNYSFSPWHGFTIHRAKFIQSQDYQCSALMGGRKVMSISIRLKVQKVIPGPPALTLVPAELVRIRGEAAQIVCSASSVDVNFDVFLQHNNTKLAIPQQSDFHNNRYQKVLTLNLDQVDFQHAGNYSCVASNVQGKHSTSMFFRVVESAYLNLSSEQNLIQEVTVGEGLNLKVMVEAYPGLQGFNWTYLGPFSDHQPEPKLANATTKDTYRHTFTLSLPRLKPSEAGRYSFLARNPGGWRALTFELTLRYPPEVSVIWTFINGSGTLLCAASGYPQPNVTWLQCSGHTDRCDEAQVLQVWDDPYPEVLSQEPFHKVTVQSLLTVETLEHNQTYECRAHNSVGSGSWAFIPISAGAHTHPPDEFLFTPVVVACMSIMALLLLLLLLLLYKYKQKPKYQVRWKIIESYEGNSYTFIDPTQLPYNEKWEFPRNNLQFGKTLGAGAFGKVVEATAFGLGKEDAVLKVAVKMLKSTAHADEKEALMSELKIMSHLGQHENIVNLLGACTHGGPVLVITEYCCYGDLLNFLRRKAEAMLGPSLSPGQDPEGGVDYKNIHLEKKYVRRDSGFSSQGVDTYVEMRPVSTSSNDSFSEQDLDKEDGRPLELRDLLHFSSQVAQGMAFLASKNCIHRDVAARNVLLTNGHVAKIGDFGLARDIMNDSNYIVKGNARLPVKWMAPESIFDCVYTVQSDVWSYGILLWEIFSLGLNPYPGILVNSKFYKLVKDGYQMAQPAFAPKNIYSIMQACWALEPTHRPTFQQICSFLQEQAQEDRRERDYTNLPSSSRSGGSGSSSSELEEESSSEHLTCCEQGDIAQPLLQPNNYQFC

| SMILES | IC50 (CSF1R) | IC50 (CSF1R (M-NFS-60 cells)) |
| --- | --- | --- |
| COc1cc2nccc(Oc3ccc(NC(=O)c4nn(CC(C)C)cc4OCC(F)(F)F)cc3F)c2cc1OC [Compound 53] | 0.5 to 1 µM | < 1 µM |
| COc1cc2nccc(Oc3ccc(NC(=O)c4nn(C[C@H](C)O)cc4OCC(F)(F)F)nc3)c2cc1OC [Compound 30] | < 0.5 µM | < 1 µM |
| COc1cc2nccc(Oc3ccc(NC(=O)c4nn(CC(C)O)cc4OCC(F)(F)F)c(F)c3)c2cc1OC (stereo not shown) [Compound 76] | ≥ 1 µM | 1 to 10 µM |
| COc1cc2nccc(Oc3ccc(NC(=O)c4nn(C5CCCC5)cc4OCC(F)(F)F)c(F)c3)c2cc1OC [Compound 47] | 0.5 to 1 µM | < 1 µM |
| CCCn1cc(OCC(F)(F)F)c(C(=O)Nc2ccc(Oc3ccnc4cc(OC)c(OC)cc34)cc2C)n1 [Compound 27] | ≥ 1 µM | 1 to 10 µM |
| CCC(=O)n1cc(OCC(F)(F)F)c(C(=O)Nc2ccc(Oc3ccnc4cc(OC)c(OC)cc34)cn2)n1 [Compound 20] | < 0.5 µM | < 1 µM |
| COc1cc2nccc(Oc3ccc(NC(=O)c4nn(CCN)cc4OCC(F)(F)F)c(F)c3)c2cc1OC [Compound 75] | ≥ 1 µM | 1 to 10 µM |
| CCCn1cc(OCCF)c(C(=O)Nc2ccc(Oc3ccnc4cc(OC)c(OC)cc34)cn2)n1 [Compound 14] | < 0.5 µM | < 1 µM |
| COc1cc2nccc(Oc3ccc(NC(=O)c4nc(CCC(F)(F)F)oc4CCC4CCC4)nc3)c2cc1OC [Compound 176] | ≥ 1 µM | 1 to 10 µM |
| COc1cc2nccc(Oc3ccc(NC(=O)c4nn(C5CCOC5)cc4OCC(F)(F)F)cc3)c2cc1OC (stereo not shown) [Compound 62] | ≥ 1 µM | 1 to 10 µM |
| COc1cc2nccc(Oc3ccc(NC(=O)c4nn(CC5CCCC5)cc4OCC(F)(F)F)nc3)c2cc1OC [Compound 71] | < 0.5 µM | 1 to 10 µM |
| COc1cc2nccc(Oc3ccc(NC(=O)c4nn(CC5CC5)cc4OCC(F)(F)F)nc3)c2cc1OC [Compound 41] | < 0.5 µM | < 1 µM |
| COc1cc2nccc(Oc3ccc(NC(=O)c4nn(CC(C)C)cc4OCC(F)(F)F)c(F)c3)c2cc1OC [Compound 48] | 0.5 to 1 µM | < 1 µM |
| COc1cc2nccc(Oc3ccc(NC(=O)c4nn(C5CC5)cc4OCC4CNC4)nn3)c2cc1OC [Compound 172] | ≥ 1 µM | ≥ 10 µM |
| CCn1nc(C(=O)Nc2ccc(Oc3ccnc4cc(OC)c(OC)cc34)cn2)c(OCC(F)(F)F)c1C [Compound 1] | < 0.5 µM | < 1 µM |
| COc1cc2nccc(Oc3ccc(NC(=O)c4nn(CC5CCCCC5)cc4OCC(F)(F)F)nc3)c2cc1OC [Compound 43] | < 0.5 µM | < 1 µM |
| COc1cc2nccc(Oc3ccc(NC(=O)c4nn(CC(C)O)cc4OCC4CN(C)C4)nc3)c2cc1OC (stereo not shown) [Compound 174] | ≥ 1 µM | ≥ 10 µM |
| CCCn1cc(OCC(F)(F)F)c(C(=O)Nc2ccc(Oc3ccnc4cc(OC)c(OC)cc34)c(C)c2)n1 [Compound 26] | < 0.5 µM | 1 to 10 µM |
| COc1cc2nccc(Oc3ccc(NC(=O)c4nn(C5CCOC5)cc4OCC(F)(F)F)nc3)c2cc1OC (stereo not shown) [Compound 13] | < 0.5 µM | < 1 µM |

| SMILES | IC50 (CSF1R) | IC50 (CSF1R (M-NFS-60 cells)) |
| --- | --- | --- |
| COc1cc2nccc(Oc3ccc(NC(=O)c4nn(CCO)cc4OCC(F)(F)F)nc3)c2cc1OC [Compound 67] | < 0.5 µM | 1 to 10 µM |
| COCCn1cc(OCC(F)(F)F)c(C(=O)Nc2ccc(Oc3ccnc4cc(OC)c(OC)cc34)cc2F)n1 [Compound 49] | ≥ 1 µM | 1 to 10 µM |
| COc1cc2nccc(Oc3ccc(NC(=O)c4nn(C5CCNC5)cc4OCC(F)(F)F)nc3)c2cc1OC (stereo not shown) [Compound 70] | 0.5 to 1 µM | 1 to 10 µM |
| COc1cc2nccc(Oc3ccc(NC(=O)c4nn(CCCN)cc4OCC(F)(F)F)nc3)c2cc1OC [Compound 68] | < 0.5 µM | 1 to 10 µM |
| COc1cc2nccc(Oc3ccc(NC(=O)c4nn(CCO)cc4OCC(F)(F)F)cc3F)c2cc1OC [Compound 51] | < 0.5 µM | < 1 µM |
| COc1cc2nccc(Oc3ccc(NC(=O)c4nn(C(C)(C)C)cc4OCC(F)(F)F)nc3)c2cc1OC [Compound 22] | < 0.5 µM | < 1 µM |
| COc1cc2nccc(Oc3ccc(NC(=O)c4nn(CCCO)cc4OCC(F)(F)F)nc3)c2cc1OC [Compound 18] | < 0.5 µM | < 1 µM |
| COc1cc2nccc(Oc3ccc(NC(=O)c4nn(CC(C)O)cc4OCC(F)F)nc3)c2cc1OC (stereo not shown) [Compound 175] | < 0.5 µM | < 1 µM |
| CCCn1cc(OC(C)C)c(C(=O)Nc2ccc(Oc3ccnc4cc(OC)c(OC(F)(F)F)cc34)c(F)c2)n1 [Compound 35] | ≥ 1 µM | 1 to 10 µM |
| COc1cc2nccc(Oc3ccc(NC(=O)c4nn(C5CCCC5)cc4OCC(F)(F)F)cc3)c2cc1OC [Compound 60] | 0.5 to 1 µM | 1 to 10 µM |
| COCCOc1cn(C2CC2)nc1C(=O)Nc1ccc(Oc2ccnc3cc(OC)c(OC)cc23)nn1 [Compound 171] | ≥ 1 µM | ≥ 10 µM |
| COc1cc2nccc(Oc3ccc(NC(=O)c4nn(C)cc4OCC(F)(F)F)c(F)c3)c2cc1OC [Compound 45] | < 0.5 µM | 1 to 10 µM |
| COc1cc2nccc(Oc3ccc(NC(=O)c4nn(CCO)cc4OCC(F)(F)F)cc3)c2cc1OC [Compound 59] | < 0.5 µM | < 1 µM |
| CCCn1cc(OCC2CCC2)c(C(=O)Nc2ccc(Oc3ccnc4cc(OC)c(OC(F)(F)F)cc34)cn2)n1 [Compound 167] | ≥ 1 µM | 1 to 10 µM |
| CCCn1cc(OCCN(C)C)c(C(=O)Nc2ccc(Oc3ccnc4cc(OC)c(OC)cc34)cn2)n1 [Compound 177] | ≥ 1 µM | 1 to 10 µM |
| COc1cc2nccc(Oc3ccc(NC(=O)c4nn(CC5CCC5)cc4OCC(F)(F)F)nc3)c2cc1OC [Compound 42] | < 0.5 µM | < 1 µM |
| CCCn1cc(OCC(F)(F)F)c(C(=O)Nc2ccc(Oc3ccnc4cc(OC)c(OC)cc34)nn2)n1 [Compound 32] | < 0.5 µM | 1 to 10 µM |
| COc1cc2nccc(Oc3ccc(NC(=O)c4nn(C5CCCCC5)cc4OCC(F)(F)F)nc3)c2cc1OC [Compound 69] | < 0.5 µM | 1 to 10 µM |
| COc1cc2nccc(Oc3ccc(NC(=O)c4nn(CCC(F)(F)F)cc4OCC4CCC4)nc3)c2cc1OC [Compound 166] | ≥ 1 µM | 1 to 10 µM |
